No end group written: not given here.
Assays:
Format in all cases: cell-based
[1] = system: MDA-MB 231 cells; assay: Colony forming activity on culture plates, MDA-MB 231; settings: 6 days; doses 0.05, 0.5 and 5 μM
Protocol: (§1) T98G (FIG. 21A), MDA-MB 231 (FIG. 21B), and HCT116 (FIG. 21C) cells were exposed to CP-DN-CEBPB and CP-DN-CEBPD for 6 days at doses of 0.05 μM 0.5 μM, and 5 μM while growing in soft agar. Growth was inhibited by does as low as 0.5 μM. T98G (FIG. 21D), MDA-MB 231 (FIG. 21E), and HCT116 (FIG. 21F) cells were exposed to CP-DN-CEBPB and CP-DN-CEBPD for 6 days at doses of 0.05 μM 0.5 μM, and 5 μM while growing on culture plates. Growth was inhibited by does as low as 0.5 μM.

[2] = system: Mgpp3 murine proneural glioma cells; assay: Cell number after peptide treatment, Mgpp3; settings: 6 days, 0 μM to 50 μM; stock without BSA
Protocol: Replicate cultures were exposed to the peptides the for 6 days at the indicated concentrations. Stock solutions of the peptides were prepared in buffer without added bovine serum albumin (BSA).

[3] = system: T98G cells; assay: Colony forming activity on culture plates, T98G; settings: 6 days; doses 0.05, 0.5 and 5 μM
Protocol: as §1

[4] = system: human astrocytes; assay: Morphology after peptide treatment, astrocytes; settings: 6 days, 0 μM or 50 μM; stock without BSA
Protocol: Replicate cultures of human astrocytes were exposed to CP-DN-CEBPB or CP-DN-CEBPD for 6 days at final concentrations of 0 μM or 50 μM. […] Stock solutions of the peptides were prepared in buffer without added bovine serum albumin (BSA).

[5] = system: HCT116 cells; assay: Combination with chloroquine, cell number, HCT116; settings: 5 μM or 10 μM chloroquine and 3 μM or 10 μM peptide, 6 days
Protocol: (§2) Replicate cultures of T98G, MDA-MB 231, and HCT116 cells were treated with 5 μM or 10 μM chloroquine and 3 μM or 10 μM CP-dn-CEBPB and CP-dn-CEBPD peptides, maintained for 6 days, and then assessed for cell number. The bar graphs of FIGS. 29A (T98G, CP-dn-CEBPB), 29C (T98G, CP-dn-CEBPBD, 29E (MDA-MB-231, CP-dn-CEBPBD), 29G (MDA-MB-231, CP-dn-CEBPD), 29I (HCT116, CP-dn-CEBPBB), and 26K (HCT116, CP-dn-CEBPBD) show relative cell numbers for each condition as compared to untreated controls. The line graphs of FIGS. 26B (T98G, CP-dn-CEBPB), 26D (T98G, CP-dn-CEBPBD), 26F (MDA-MB-231, CP-dn-CEBPB), 26H (MDA-MB-231, CP-dn-CEBPD), 26J (HCT116, CP-dn-CEBPB), and 26L (HCT116 CP-dn-CEBPBD) show the response as normalized in each case so that 100 represents the relative number of surviving cells that received the indicated level of chloroquine, but no peptide treatment. The results ranged from near-additive (HCT116 cells, CI=0.92±0.08 for CP-dn-CEBPB and 0.87±0.07 for CP-dn-CEBPD) to apparent synergy (T98G, CI=0.56±0.06 for CP-dn-CEBPB and 0.75±0.03 for CP-dn-CEBPD; MDA-MB-261, CI=0.59±0.11 for CP-dn-CEBPB and 0.47±0.05 for CP-dn-CEBPD).

[6] = system: 293T transformed embryonic kidney cells; assay: Cell number after peptide treatment, 293T; settings: 6 days, 0 μM to 50 μM; stock without BSA
Protocol: Replicate cultures of MDA-MB-468 breast cancer cells, A549 lung cancer cells and 293T transformed embryonic kidney cells were exposed to CP-DN-CEBPB or CP-DN-CEBPD, for 6 days at doses of 0 μM to 50 μM. […] Stock solutions of the peptides were prepared in buffer without added bovine serum albumin (BSA).

[7] = system: MDA-MB 231 cells; assay: Combination with chloroquine, cell number, MDA-MB 231; settings: 5 μM or 10 μM chloroquine and 3 μM or 10 μM peptide, 6 days
Protocol: as §2

[8] = system: T98G glioblastoma cells; assay: Cell number (growth and survival) after peptide treatment, T98G; settings: for growth and survival of T98G cells, time course: 10 μM or 20 μM for 1-6 days; for growth and survival of T98G cells, time course / number of T98G cells / morphology, growth and survival of T98G cells: stock without BSA; for number of T98G cells: 6-7 days; for number of T98G cells / effect of BSA in stock buffer on potency in suppressing growth and survival: 0 μM to 50 μM; for morphology, growth and survival of T98G cells: 5 days, 10 or 20 μM (CP-DN-CEBPB), 3, 10, 20 or 50 μM (CP-DN-CEBPD); for effect of BSA in stock buffer on potency in suppressing growth and survival: 6 days, BSA 3 mg/ml in stock, 0.6 mg/ml in medium
Protocol: Replicate T98G glioblastoma cell cultures were exposed to dominant negative (DN) synthetic peptides having an N-terminal penetratin sequence followed by a CEBPB or CEBPD native leucine zipper sequence (CP-DN-CEBPB or CP-DN-CEBPD, respectively) for 5 days at final concentrations of 10 μM or 20 μM (CP-DN-CEBPB) or 3 μM, 10 μM, 20 μM or 50 μM (CP-DN-CEBPD). Stock solutions of the peptides were prepared in buffer without added bovine serum albumin (BSA).
Replicate T98G glioblastoma cell cultures were exposed to CP-DN-CEBPB or CP-DN-CEBPD, for 6-7 days at doses of 0 μM to 50 μM. […] Stock solutions of the peptides were prepared in buffer without added bovine serum albumin (BSA).
Replicate T98G cell cultures were exposed to CP-DN-CEBPB or CP-DN-CEBPD peptides (10 μM or 20 μM) for 1, 2, 3, 4, 5, or 6 days. […] Values shown in FIG. 7A and FIG. 7B represent means from 3 replicate cultures. Stock solutions of the peptides were prepared in buffer without added bovine serum albumin (BSA).
Four replicate cultures of T98G cells were treated for 6 days with a cell penetrating dominant negative CEBPB (CP-DN-CEBPB; FIG. 8A) or a cell penetrating dominant negative CEBPD (CP-DN-CEBPD; FIG. 8B) at doses of 0 μM to 50 μM, with or without bovine serum albumin (BSA). […] Concentration of BSA in the stock solution, when present, was 3 mg/ml. The final concentration of BSA in the cell culture medium was 0.6 mg/ml. Values represent means of determinations made on 4 replicate cultures for each condition.
Replicate cultures of HCT116, MDA-MB 231, MCF7, and T98G cells were exposed to a 50/50 by concentration mixture of CP-DN-CEBPB and CP-DN-CEBPD for 6 days at doses of 0 μM to 50 μM. Stock solutions of the peptides were prepared in buffer without added bovine serum albumin (BSA).
Replicate cultures of T98G, HCT116, MDA-MB 231, and MCF7 cells were exposed to CP-DN-CEBPB, CP-DN-CEBPD, or a CP-DN-CEBPD in which heptad repeat leucine residues were mutated to glycine residues for 6 days at doses of 0 μM to 50 μM. Stock solutions of the peptides were prepared in buffer without added bovine serum albumin (BSA).

RQIKIWFQNRRMKWKKLETQHKVLELTAENERLQKKVEQLSRELSTLRNLFKQL [CP-DN-CEBPB]
lowest dose at which growth was inhibited, culture plates [1]: 0.5 µM | growth and survival of Mgpp3 cells [2]: decrease in growth and survival | lowest dose at which growth was inhibited, culture plates [3]: 0.5 µM | morphology of human astrocytes [4]: did not affect the morphology | CI with chloroquine [5]: 0.92±0.08 | number of 293T cells [6]: dose-dependent decrease in the number | CI with chloroquine [7]: 0.59±0.11 | growth and survival of T98G cells, time course [8]: decreased as compared to untreated control cells | number of T98G cells [8]: dose-responsively decreased | morphology, growth and survival of T98G cells [8]: dose-responsively affected the morphology, growth and survival | effect of BSA in stock buffer on potency in suppressing growth and survival [8]: greatly increased the potency

RQIKIWFQNRRMKWKKLVELSAENEKLHQRVEQLTRDLAGLRQFFK [CP-DN-CEBPD]
lowest dose at which growth was inhibited, culture plates [1]: 0.5 µM | growth and survival of Mgpp3 cells [2]: decrease in growth and survival | lowest dose at which growth was inhibited, culture plates [3]: 0.5 µM | morphology of human astrocytes [4]: did not affect the morphology | CI with chloroquine [5]: 0.87±0.07 | number of 293T cells [6]: dose-dependent decrease in the number | CI with chloroquine [7]: 0.47±0.05 | growth and survival of T98G cells, time course [8]: decreased as compared to untreated control cells | number of T98G cells [8]: dose-responsively decreased | morphology, growth and survival of T98G cells [8]: dose-responsively affected the morphology, growth and survival | effect of BSA in stock buffer on potency in suppressing growth and survival [8]: greatly increased the potency

Reference: patent US12428455B2, “Dominant negative CEBPB and CEBPD proteins and methods of use for decreasing viability of neoplastic cells” (The Trustees of Columbia University in the City of New York, priority 2018, dated 2025)
